Assay [1] has as its system B. bifidum MIMBb23sg DSM 32708. Put plainly: Antibiotic MIC by microdilution analysis (ISO, 2010). Format: cell-based, Bifidobacterium bifidum. As to conditions: for MIC: Bifidobacterium bifidum. (Dilution methods test growth across graded concentrations, often in twofold steps.)
A further assay has as its system bifidobacteria. The note with it: limit values provided for bifidobacteria (EFSA, 2012); cited from earlier work.
Where [2] appears, read: DSM32708, microdilution analysis, ISO 2010, read-out: MIC of MIMBb23sg.

Where two headings read alike, the source gives them in different places.

A word on the MIC: it is the lowest concentration that inhibits growth of the organism. `CC1(C)S[C@@H]2[C@H](NC(=O)[C@H](N)c3ccccc3)C(=O)N2[C@H]1C(=O)O` [ampicillin]: the MIC in assay [1] (setting [2]) stood at 0.25 µg/mL. The EFSA limit values in the assay with bifidobacteria is 2 µg/mL. For `O=C(N[C@H](CO)[C@H](O)c1ccc([N+](=O)[O-])cc1)C(Cl)Cl` [chloramphenicol], the MIC in assay [1] (setting [2]) was 2 µg/mL. The EFSA limit values in the assay with bifidobacteria was 4 µg/mL.

In the case of `CCC[C@@H]1C[C@@H](C(=O)N[C@@H]([C@H]2O[C@H](SC)[C@H](O)[C@@H](O)[C@H]2O)[C@H](C)Cl)N(C)C1` [clindamycin], the MIC in assay [1] (setting [2]) stood at 0.25 µg/mL. For `CC[C@H]1OC(=O)[C@H](C)[C@@H](O[C@H]2C[C@@](C)(OC)[C@@H](O)[C@H](C)O2)[C@H](C)[C@@H](O[C@@H]2O[C@H](C)C[C@H](N(C)C)[C@H]2O)[C@](C)(O)C[C@@H](C)C(=O)[C@H](C)[C@@H](O)[C@]1(C)O` [erythromycin], the minimum inhibitory concentration (MIC) in assay [1] (setting [2]) stood at 0.25 µg/mL. Further, in the assay with bifidobacteria, the EFSA limit values is 1 µg/mL. Turning to `NC[C@H]1O[C@H](O[C@H]2[C@H](O)[C@@H](O[C@H]3O[C@H](CO)[C@@H](O)[C@H](N)[C@H]3O)[C@H](N)C[C@@H]2N)[C@H](O)[C@@H](O)[C@@H]1O` [kanamycin], the MIC in assay [1] (setting [2]) worked out at 128 µg/mL. Regarding `[H]/N=C(/N)N[C@H]1[C@H](O)[C@@H](O)[C@H](O[C@@H]2O[C@@H](C)[C@](O)(C=O)[C@H]2O[C@@H]2O[C@@H](CO)[C@H](O)[C@@H](O)[C@@H]2NC)[C@@H](N/C(N)=N\[H])[C@@H]1O` [streptomycin], in assay [1] (setting [2]), the MIC worked out at 128 µg/mL. The EFSA limit values with bifidobacteria was 128 µg/mL. With `CN(C)[C@@H]1C(O)=C(C(N)=O)C(=O)[C@@]2(O)C(O)=C3C(=O)c4c(O)cccc4[C@@](C)(O)[C@H]3C[C@@H]12` [tetracycline], in assay [1] (setting [2]), the minimum inhibitory concentration (MIC) came out at 1 µg/mL. Regarding `CN[C@H](CC(C)C)C(=O)N[C@H]1C(=O)N[C@@H](CC(N)=O)C(=O)N[C@H]2C(=O)N[C@H]3C(=O)N[C@H](C(=O)N[C@H](C(=O)O)c4cc(O)cc(O)c4-c4cc3ccc4O)[C@H](O)c3ccc(c(Cl)c3)Oc3cc2cc(c3O[C@@H]2O[C@H](CO)[C@@H](O)[C@H](O)[C@H]2O[C@H]2C[C@](C)(N)[C@H](O)[C@H](C)O2)Oc2ccc(cc2Cl)[C@H]1O` [vancomycin], the MIC in assay [1] (DSM32708, read-out: MIC of MIMBb23sg) came to 0.5 µg/mL. Further, the EFSA limit values in the assay with bifidobacteria is 2 µg/mL.

With gentamicin, the “MIC of MIMBb23sg” value in assay [1] (microdilution analysis, ISO 2010) came out at 32 µg/mL. For the same compound, the EFSA limit values in the assay on bifidobacteria was 64 µg/mL.

The values are drawn from US20220313753A1, “BIFIDOBACTERIUM BIFIDUM BACTERIAL STRAIN, THE COMPOSITIONS THEREOF AND RELATED USES” (priority 2019, published 2022).
